Source: US20230365537A1, “POLO LIKE KINASE 4 INHIBITORS” (ORIC Pharmaceuticals, Inc., priority 2021, published 2023)

How the values were obtained:
human recombinant PLK4 = human recombinant PLK4 (Homo sapiens (Human), UniProt O00444); assay: PLK4 Biochemical Assay (ADP-Glo); conditions: 0.5 nM PLK4, 8.0 µM ATP, 4.7 µM MBP, 6 hours at RT
Method: (§1) Activity of human recombinant PLK4 (ThermoFisher, cat #PV6396) was measured by quantification of adenosine diphosphate (ADP) using the ADP-Glo Kinase Assay Kit (Promega, cat #V9102). […] 5 µL of 1.0 nM PLK4 protein in assay buffer (50 mM HEPES, pH 7.5, 0.01% Brij-35, 0.01% BSA, 10 mM MgCl2, 1 mM EGTA, 1 mM DTT) was added to the plates. Test compounds and PLK4 were incubated for 15 minutes at room temperature (RT). […] Reactions were stopped and the remaining ATP depleted by adding 10 µL of ADP-Glo reagent (Promega, cat#V912B) and incubating for 40 minutes at RT. The simultaneous conversion of the remaining ADP to ATP and measurement of the newly synthesized ATP was achieved by addition of 20 µL Kinase Detection reagent (Promega, cat #V914B), incubation for 30 min at RT, and luminescence detection using the EnVision plate reader (PerkinElmer). […] The IC50 values reported in Table 2 were determined using four parameter non-linear regression curve fit.

[1] = target: human recombinant Aurora A (Homo sapiens (Human), UniProt O14965); assay: Aurora A Kinase Biochemical Assay (ADP-Glo); conditions: ratio of Aurora A IC50 to PLK4 IC50 (selectivity)
Method: as §1, with “Aurora A” for “PLK4”, “#PR5935A)” for “#PV6396)”, “5.0” for “1.0”, “Aurora A” for “PLK4 protein”, “10uL” for “10 µL”

[2] = target: human recombinant Aurora B (Homo sapiens (Human), UniProt Q96GD4); assay: Aurora B Kinase Biochemical Assay (ADP-Glo); conditions: ratio of Aurora B IC50 to PLK4 IC50 (selectivity)
Method: as §1, with “Aurora B” for “PLK4”, “#PR9210B)” for “#PV6396)”, “20” for “1.0”, “Aurora B” for “PLK4 protein”, “10uL” for “10 µL”

Sequence of human recombinant Aurora B (Q96GD4 whole entry): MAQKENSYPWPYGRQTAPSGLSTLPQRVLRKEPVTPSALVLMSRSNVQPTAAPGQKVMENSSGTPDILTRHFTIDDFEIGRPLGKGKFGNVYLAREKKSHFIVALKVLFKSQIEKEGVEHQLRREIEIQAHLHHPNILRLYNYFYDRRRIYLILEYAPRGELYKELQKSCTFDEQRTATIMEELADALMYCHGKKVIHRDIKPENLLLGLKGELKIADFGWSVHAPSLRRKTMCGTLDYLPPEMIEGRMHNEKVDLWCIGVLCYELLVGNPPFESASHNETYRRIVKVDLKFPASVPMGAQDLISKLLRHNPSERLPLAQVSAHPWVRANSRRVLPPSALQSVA
Sequence of human recombinant PLK4 (O00444 whole entry): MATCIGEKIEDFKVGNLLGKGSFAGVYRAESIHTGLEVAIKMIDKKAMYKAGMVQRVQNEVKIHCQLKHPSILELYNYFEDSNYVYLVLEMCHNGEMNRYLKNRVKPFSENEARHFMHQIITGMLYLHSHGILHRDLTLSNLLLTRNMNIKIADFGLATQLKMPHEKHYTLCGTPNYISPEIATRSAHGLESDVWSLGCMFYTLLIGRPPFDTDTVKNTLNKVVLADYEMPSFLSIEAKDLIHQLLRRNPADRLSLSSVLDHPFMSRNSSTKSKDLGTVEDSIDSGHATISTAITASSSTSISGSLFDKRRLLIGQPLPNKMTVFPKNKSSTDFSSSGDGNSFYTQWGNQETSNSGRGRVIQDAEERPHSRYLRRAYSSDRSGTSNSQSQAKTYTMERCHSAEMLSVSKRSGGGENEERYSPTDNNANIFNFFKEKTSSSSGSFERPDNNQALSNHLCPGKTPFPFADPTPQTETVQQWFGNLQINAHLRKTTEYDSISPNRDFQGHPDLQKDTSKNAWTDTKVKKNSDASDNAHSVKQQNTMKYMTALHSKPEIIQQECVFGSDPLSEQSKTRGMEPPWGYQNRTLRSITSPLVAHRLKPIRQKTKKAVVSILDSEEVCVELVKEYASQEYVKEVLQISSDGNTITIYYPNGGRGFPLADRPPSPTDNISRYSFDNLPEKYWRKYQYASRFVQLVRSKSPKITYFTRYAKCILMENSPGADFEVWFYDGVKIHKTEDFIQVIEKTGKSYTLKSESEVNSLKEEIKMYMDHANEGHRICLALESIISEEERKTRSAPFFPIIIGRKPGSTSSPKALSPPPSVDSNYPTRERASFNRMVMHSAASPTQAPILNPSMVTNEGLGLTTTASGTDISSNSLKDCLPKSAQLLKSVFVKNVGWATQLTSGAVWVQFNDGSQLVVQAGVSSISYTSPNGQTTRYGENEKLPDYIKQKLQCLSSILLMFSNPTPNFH
Sequence of human recombinant Aurora A (O14965 whole entry): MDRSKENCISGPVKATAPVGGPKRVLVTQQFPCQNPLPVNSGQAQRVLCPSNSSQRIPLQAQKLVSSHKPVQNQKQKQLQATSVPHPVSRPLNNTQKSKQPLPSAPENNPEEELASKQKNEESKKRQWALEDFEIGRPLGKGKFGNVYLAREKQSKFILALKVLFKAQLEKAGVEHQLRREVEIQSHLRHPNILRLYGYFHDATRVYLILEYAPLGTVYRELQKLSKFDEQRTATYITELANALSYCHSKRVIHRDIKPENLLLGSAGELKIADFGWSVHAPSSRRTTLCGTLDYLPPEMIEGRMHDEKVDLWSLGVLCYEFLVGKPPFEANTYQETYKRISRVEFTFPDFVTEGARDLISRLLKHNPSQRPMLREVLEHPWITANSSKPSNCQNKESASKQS

Row | IC50 (human recombinant PLK4) [nM] | [Aurora A IC50 (nM)]/[PLK4 IC50 (nM)] [1] | [Aurora B IC50 (nM)]/[PLK4 IC50 (nM)] [2] | SMILES
1 | 7.91 | 5824.2730 | 2807.8381 | CCP(=O)(CC)c1ccc(OC)c(Nc2n[nH]c3cc([C@@H]4C[C@@]45C(=O)Nc4ccc(OC)cc45)ccc23)c1 [Example 261, (1R,2S)-2-{3-[5-(diethylphosphoryl)-2-methoxyanilino]-1H-indazol-6-yl}-5′-methoxyspiro[cyclopropane-1,3′-indol]-2′(1′H)-one]
2 | 6.56 | 2585.7077 | 451.7751 | COc1ccc2c(c1)[C@]1(C[C@H]1c1ccc3c(Nc4cnc(P(C)(C)=O)cc4OC)n[nH]c3c1)C(=O)N2 [Example 249, (1R,2S)-2-(3-{[6-(dimethylphosphoryl)-4-methoxypyridin-3-yl]amino}-1H-indazol-6-yl)-5′-methoxyspiro[cyclopropane-1,3′-indol]-2′(1′H)-one]
3 | 2.26 | 949.6021 | 114.8983 | COc1ccc2c(c1)[C@]1(C[C@H]1c1ccc3c(Nc4ncc(C(=O)N(C)C)nc4OC)n[nH]c3c1)C(=O)N2 [Example 236, 6-methoxy-5-({6-[(1R,2S)-5′-methoxy-2′-oxo-1′,2′-dihydrospiro[cyclopropane-1,3′-indol]-2-yl]-1H-indazol-3-yl}amino)-N,N-dimethylpyrazine-2-carboxamide]
4 | 0.59 | 2162.7118 | 230 | CCOc1cc(S(=O)(=O)NC)cnc1Nc1n[nH]c2cc([C@@H]3C[C@@]34C(=O)Nc3ccc(OC)cc34)ccc12 [Example 275, 5-ethoxy-6-({6-[(1R,2S)-5′-methoxy-2′-oxo-1′,2′-dihydrospiro[cyclopropane-1,3′-indol]-2-yl]-1H-indazol-3-yl}amino)-N-methylpyridine-3-sulfonamide]
5 | 2.94 | 3385.3211 | 369 | CCOc1nc(C(=O)N(C)C)cnc1Nc1n[nH]c2cc([C@@H]3C[C@@]34C(=O)Nc3ccc(OC)cc34)ccc12 [Example 237, 6-ethoxy-5-({6-[(1R,2S)-5′-methoxy-2′-oxo-1′,2′-dihydrospiro[cyclopropane-1,3′-indol]-2-yl]-1H-indazol-3-yl}amino)-N,N-dimethylpyrazine-2-carboxamide]
6 | 1.34 | 37425.1497 | 2792.6646 | CCOc1cc(S(C)(=O)=O)ncc1Nc1n[nH]c2cc([C@@H]3C[C@@]34C(=O)Nc3ccc(OC)cc34)ccc12 [Example 279, (1R,2S)-2-{3-[(4-ethogy-6-methanesulfonylpyridin-3-yl)amino]-1H-indazol-6-yl}-5′-methoxy-1′H-spiro[cyclopropane-1,3′-indol]-2′-one]

More lines, now with the values behind:

Row | SMILES | IC50 (human recombinant PLK4) [nM] | [Aurora A IC50 (nM)]/[PLK4 IC50 (nM)] [1] | [Aurora B IC50 (nM)]/[PLK4 IC50 (nM)] [2]
7 | COc1cnc(C)nc1Nc1n[nH]c2cc([C@@H]3C[C@@]34C(=O)Nc3cccc(F)c34)ccc12 [Example 129, (1R,2S)-4′-fluoro-2-{3-[(5-methoxy-2-methylpyrimidin-4-yl)amino]-1H-indazol-6-yl}spiro[cyclopropane-1,3′-indol]-2′(1′H)-one] | 34.5 | 18.1054 | 17.1349
8 | COc1ccc2c(c1)[C@]1(C[C@H]1c1ccc3c(Nc4nc(CC(C)(C)O)nc(N5CCOCC5)c4OC)n[nH]c3c1)C(=O)N2 [Example 93, (1R,2S)-2-(3-{[2-(2-hydroxy-2-methylpropyl)-5-methoxy-6-(morpholin-4-yl)pyrimidin-4-yl]amino}-1H-indazol-6-yl)-5′-methoxyspiro[cyclopropane-1,3′-indol]-2′(1′H)-one] | 24.3 | 1733.361 | 1055.053
9 | COc1ccc2c(c1)[C@]1(C[C@H]1c1ccc3c(Nc4nccc5c4OC[C@@H]5CO)n[nH]c3c1)C(=O)N2 [Example 33, (1R,2S)-2-(3-{[(3S)-3-(hydroxymethyl)-2,3-dihydrofuro[2,3-c]pyridin-7-yl]amino}-1H-indazol-6-yl)-5′-methoxyspiro[cyclopropane-1,3′-indol]-2′(1′H)-one] | 5.91 | 355.9465 | 8.474
10 | COc1ccc2c(c1)[C@]1(C[C@H]1c1ccc3c(Nc4cn(C)nc4C#N)n[nH]c3c1)C(=O)N2 [Example 66, 4-({6-[(1R,2S)-5′-methoxy-2′-oxo-1′,2′-dihydrospiro[cyclopropane-1,3′-indol]-2-yl]-1H-indazol-3-yl}amino)-1-methyl-1H-pyrazole-3-carbonitrile] | 2340 | 21.37 | 7.607
11 | COc1ccc2c(c1)[C@]1(C[C@H]1c1ccc3c(Nc4cc(C(=O)N(C)C)cnc4OC)n[nH]c3c1)C(=O)N2 [Example 181, 6-methoxy-5-({6-[(1R,2S)-5′-methoxy-2′-oxo-1′,2′-dihydrospiro[cyclopropane-1,3′-indol]-2-yl]-1H-indazol-3-yl}amino)-N,N-dimethylpyridine-3-carboxamide] | 7.58 | 2415.5227 | 3693.2418
12 | COc1ccc2c(c1)[C@]1(C[C@H]1c1ccc3c(Nc4ncc(P(C)(C)=O)nc4OC)n[nH]c3c1)C(=O)N2 [Example 229, (1R,2S)-2-(3-{[5-(dimethylphosphoryl)-3-methoxypyrazin-2-yl]amino}-1H-indazol-6-yl)-5′-methoxyspiro[cyclopropane-1,3′-indol]-2′(1′H)-one] | 7.85 | 1669.4278 | 130.8780
13 | COc1ccc2c(c1)[C@]1(C[C@H]1c1ccc3c(Nc4ncnc(N5CCCOCC5)c4OC)n[nH]c3c1)C(=O)N2 [Example 44, (1R,2S)-5′-methoxy-2-(3-{[5-methoxy-6-(1,4-oxazepan-4-yl)pyrimidin-4-yl]amino}-1H-indazol-6-yl)spiro[cyclopropane-1,3′-indol]-2′(1′H)-one] | 20.7 | 1269.119 | 45.11
14 | COc1ccc2c(c1)[C@]1(C[C@H]1c1ccc3c(Nc4cc(N5CC(O)C5)nc(C(C)C)n4)n[nH]c3c1)C(=O)N2 [Example 111, (1R,2S)-2-(3-{[6-(3-hydroxyazetidin-1-yi)-2-(propan-2,yl)pyrimidin-4-yl]amino}-1H-indazol-6-yl)-5′-inethoxyspiro[cyclopropane-1,3′-indol]-2′(1′H)-one] | 1.53 | 234.7231 | 144.4951
15 | COc1ccc2c(c1)[C@]1(C[C@H]1c1ccc3c(Nc4cc(OCCO)ncn4)n[nH]c3c1)C(=O)N2 [Example 38, (1R,2S)-2-(3-{[6-(2-hydroxyethoxy)pyrimidin-4-yl]amino}-1H-indazol-6-yl)-5′-methoxyspiro[cyclopropane-1,3′-indol]-2′(1′H)-one] | 14.1 | 43.69 | 2.761
16 | COc1ccc2c(c1)[C@]1(C[C@H]1c1ccc3c(Nc4cc(N5CCS(=O)(=O)CC5)ncn4)n[nH]c3c1)C(=O)N2 [Example 39, (1R,2S)-2-(3-((6-(1,1-dioxidothiomorpholino)pyrimidin-4-yl)amino)-1H-indazol-6-yl)-5′-methoxyspiro[cyclopropane-1,3′-indolin]-2′-one] | 26.4 | 30.38 | 1.018
17 | COc1ccc2c(c1)[C@]1(C[C@H]1c1ccc3c(Nc4cnn(C)c4)n[nH]c3c1)C(=O)N2 [Example 65] | 44.2 | 82.48 | 5.356
